Laboratory results as given in the supplement of paper PMC8671470.
Counter-ions that a name gives are not always drawn.

system: Mono-Mac-6; test: cell viability (% survival relative to DMSO control); higher = less cytotoxic; details: drug1 concentration 10 nM; drug2 concentration 500 nM; 72 h
Protocol: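 8x8 drug-combination matrices (0–5000 nM; rosiglitazone and lestaurtinib 0–1000 nM) were run in Mono-Mac-6 cells for 72 h with CellTiter-Glo read-out. Survival is normalised to DMSO and 10 µM bortezomib and clipped at 100%.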

| Structure (SMILES) | cell viability |
| --- | --- |
| CN(CCOc1ccc(Cc2sc(O)nc2O)cc1)c1ccccn1 [Rosiglitazone] + c1cc(-c2cnn3cc(-c4ccc(OCCN5CCCCC5)cc4)cnc23)ccn1 [Dorsomorphin] | 54.8% |

same assay, conditions: drug1 concentration 10 nM; drug2 concentration 1000 nM; 72 h

| Structure (SMILES) | cell viability |
| --- | --- |
| O=C(O)CC[N+](=O)[O-] [3-nitropropionic acid] + CCn1c(=Cc2cccc[n+]2CC)sc(=C2Sc3ccccc3N2C)c1=O [MKT 077] | > 100% |
| CCn1c(=Cc2cccc[n+]2CC)sc(=C2Sc3ccccc3N2C)c1=O [MKT 077] + CN(C)CCNC(=O)c1cccn2c(=O)c3cc4ccccc4cc3nc12 [Bmh-21] | 77.5% |
| CN(CCOc1ccc(Cc2sc(O)nc2O)cc1)c1ccccn1 [Rosiglitazone] + CC(C)(Cc1ccccc1)NCC(O)c1ccc(O)c(NS(C)(=O)=O)c1 [Zinterol hydrochloride] | 74.7% |
| CN(CCOc1ccc(Cc2sc(O)nc2O)cc1)c1ccccn1 [Rosiglitazone] + c1cc(-c2cnn3cc(-c4ccc(OCCN5CCCCC5)cc4)cnc23)ccn1 [Dorsomorphin] | 35.9% |

same assay, conditions: drug1 concentration 10 nM; drug2 concentration 5000 nM; 72 h

| Structure (SMILES) | cell viability |
| --- | --- |
| O=C(O)CC[N+](=O)[O-] [3-nitropropionic acid] + CCn1c(=Cc2cccc[n+]2CC)sc(=C2Sc3ccccc3N2C)c1=O [MKT 077] | 74.4% |
| CCn1c(=Cc2cccc[n+]2CC)sc(=C2Sc3ccccc3N2C)c1=O [MKT 077] + CN(C)CCNC(=O)c1cccn2c(=O)c3cc4ccccc4cc3nc12 [Bmh-21] | 58.2% |
| CN(CCOc1ccc(Cc2sc(O)nc2O)cc1)c1ccccn1 [Rosiglitazone] + CC(C)(Cc1ccccc1)NCC(O)c1ccc(O)c(NS(C)(=O)=O)c1 [Zinterol hydrochloride] | 51.4% |
| CN(CCOc1ccc(Cc2sc(O)nc2O)cc1)c1ccccn1 [Rosiglitazone] + c1cc(-c2cnn3cc(-c4ccc(OCCN5CCCCC5)cc4)cnc23)ccn1 [Dorsomorphin] | 9.61% |

same assay, conditions: drug1 concentration 50 nM; drug2 concentration 5 nM; 72 h

| Structure (SMILES) | cell viability |
| --- | --- |
| O=C(O)CC[N+](=O)[O-] [3-nitropropionic acid] + CCn1c(=Cc2cccc[n+]2CC)sc(=C2Sc3ccccc3N2C)c1=O [MKT 077] | > 100% |
| CCn1c(=Cc2cccc[n+]2CC)sc(=C2Sc3ccccc3N2C)c1=O [MKT 077] + CN(C)CCNC(=O)c1cccn2c(=O)c3cc4ccccc4cc3nc12 [Bmh-21] | 99.6% |
| CN(CCOc1ccc(Cc2sc(O)nc2O)cc1)c1ccccn1 [Rosiglitazone] + CC(C)(Cc1ccccc1)NCC(O)c1ccc(O)c(NS(C)(=O)=O)c1 [Zinterol hydrochloride] | 79.7% |
| CN(CCOc1ccc(Cc2sc(O)nc2O)cc1)c1ccccn1 [Rosiglitazone] + c1cc(-c2cnn3cc(-c4ccc(OCCN5CCCCC5)cc4)cnc23)ccn1 [Dorsomorphin] | > 100% |

same assay, conditions: drug1 concentration 50 nM; drug2 concentration 10 nM; 72 h

| Structure (SMILES) | cell viability |
| --- | --- |
| O=C(O)CC[N+](=O)[O-] [3-nitropropionic acid] + CCn1c(=Cc2cccc[n+]2CC)sc(=C2Sc3ccccc3N2C)c1=O [MKT 077] | > 100% |
| CCn1c(=Cc2cccc[n+]2CC)sc(=C2Sc3ccccc3N2C)c1=O [MKT 077] + CN(C)CCNC(=O)c1cccn2c(=O)c3cc4ccccc4cc3nc12 [Bmh-21] | > 100% |
| CN(CCOc1ccc(Cc2sc(O)nc2O)cc1)c1ccccn1 [Rosiglitazone] + CC(C)(Cc1ccccc1)NCC(O)c1ccc(O)c(NS(C)(=O)=O)c1 [Zinterol hydrochloride] | 89.6% |
| CN(CCOc1ccc(Cc2sc(O)nc2O)cc1)c1ccccn1 [Rosiglitazone] + c1cc(-c2cnn3cc(-c4ccc(OCCN5CCCCC5)cc4)cnc23)ccn1 [Dorsomorphin] | 84.5% |

same assay, conditions: drug1 concentration 50 nM; drug2 concentration 50 nM; 72 h

| Structure (SMILES) | cell viability |
| --- | --- |
| O=C(O)CC[N+](=O)[O-] [3-nitropropionic acid] + CCn1c(=Cc2cccc[n+]2CC)sc(=C2Sc3ccccc3N2C)c1=O [MKT 077] | > 100% |
| CCn1c(=Cc2cccc[n+]2CC)sc(=C2Sc3ccccc3N2C)c1=O [MKT 077] + CN(C)CCNC(=O)c1cccn2c(=O)c3cc4ccccc4cc3nc12 [Bmh-21] | 82.7% |
| CN(CCOc1ccc(Cc2sc(O)nc2O)cc1)c1ccccn1 [Rosiglitazone] + CC(C)(Cc1ccccc1)NCC(O)c1ccc(O)c(NS(C)(=O)=O)c1 [Zinterol hydrochloride] | 76.7% |
| CN(CCOc1ccc(Cc2sc(O)nc2O)cc1)c1ccccn1 [Rosiglitazone] + c1cc(-c2cnn3cc(-c4ccc(OCCN5CCCCC5)cc4)cnc23)ccn1 [Dorsomorphin] | 94.7% |

same assay, conditions: drug1 concentration 50 nM; drug2 concentration 100 nM; 72 h

| Structure (SMILES) | cell viability |
| --- | --- |
| O=C(O)CC[N+](=O)[O-] [3-nitropropionic acid] + CCn1c(=Cc2cccc[n+]2CC)sc(=C2Sc3ccccc3N2C)c1=O [MKT 077] | > 100% |
| CCn1c(=Cc2cccc[n+]2CC)sc(=C2Sc3ccccc3N2C)c1=O [MKT 077] + CN(C)CCNC(=O)c1cccn2c(=O)c3cc4ccccc4cc3nc12 [Bmh-21] | > 100% |
| CN(CCOc1ccc(Cc2sc(O)nc2O)cc1)c1ccccn1 [Rosiglitazone] + CC(C)(Cc1ccccc1)NCC(O)c1ccc(O)c(NS(C)(=O)=O)c1 [Zinterol hydrochloride] | 62.9% |
| CN(CCOc1ccc(Cc2sc(O)nc2O)cc1)c1ccccn1 [Rosiglitazone] + c1cc(-c2cnn3cc(-c4ccc(OCCN5CCCCC5)cc4)cnc23)ccn1 [Dorsomorphin] | 74.5% |

same assay, conditions: drug1 concentration 50 nM; drug2 concentration 500 nM; 72 h

| Structure (SMILES) | cell viability |
| --- | --- |
| O=C(O)CC[N+](=O)[O-] [3-nitropropionic acid] + CCn1c(=Cc2cccc[n+]2CC)sc(=C2Sc3ccccc3N2C)c1=O [MKT 077] | > 100% |
| CCn1c(=Cc2cccc[n+]2CC)sc(=C2Sc3ccccc3N2C)c1=O [MKT 077] + CN(C)CCNC(=O)c1cccn2c(=O)c3cc4ccccc4cc3nc12 [Bmh-21] | 82.1% |
| CN(CCOc1ccc(Cc2sc(O)nc2O)cc1)c1ccccn1 [Rosiglitazone] + CC(C)(Cc1ccccc1)NCC(O)c1ccc(O)c(NS(C)(=O)=O)c1 [Zinterol hydrochloride] | 66.1% |
| CN(CCOc1ccc(Cc2sc(O)nc2O)cc1)c1ccccn1 [Rosiglitazone] + c1cc(-c2cnn3cc(-c4ccc(OCCN5CCCCC5)cc4)cnc23)ccn1 [Dorsomorphin] | 60.7% |

same assay, conditions: drug1 concentration 50 nM; drug2 concentration 1000 nM; 72 h

| Structure (SMILES) | cell viability |
| --- | --- |
| O=C(O)CC[N+](=O)[O-] [3-nitropropionic acid] + CCn1c(=Cc2cccc[n+]2CC)sc(=C2Sc3ccccc3N2C)c1=O [MKT 077] | > 100% |
| CCn1c(=Cc2cccc[n+]2CC)sc(=C2Sc3ccccc3N2C)c1=O [MKT 077] + CN(C)CCNC(=O)c1cccn2c(=O)c3cc4ccccc4cc3nc12 [Bmh-21] | > 100% |
| CN(CCOc1ccc(Cc2sc(O)nc2O)cc1)c1ccccn1 [Rosiglitazone] + CC(C)(Cc1ccccc1)NCC(O)c1ccc(O)c(NS(C)(=O)=O)c1 [Zinterol hydrochloride] | 66.2% |
| CN(CCOc1ccc(Cc2sc(O)nc2O)cc1)c1ccccn1 [Rosiglitazone] + c1cc(-c2cnn3cc(-c4ccc(OCCN5CCCCC5)cc4)cnc23)ccn1 [Dorsomorphin] | 47.5% |

same assay, conditions: drug1 concentration 50 nM; drug2 concentration 5000 nM; 72 h

| Structure (SMILES) | cell viability |
| --- | --- |
| O=C(O)CC[N+](=O)[O-] [3-nitropropionic acid] + CCn1c(=Cc2cccc[n+]2CC)sc(=C2Sc3ccccc3N2C)c1=O [MKT 077] | > 100% |
| CCn1c(=Cc2cccc[n+]2CC)sc(=C2Sc3ccccc3N2C)c1=O [MKT 077] + CN(C)CCNC(=O)c1cccn2c(=O)c3cc4ccccc4cc3nc12 [Bmh-21] | 59.9% |
| CN(CCOc1ccc(Cc2sc(O)nc2O)cc1)c1ccccn1 [Rosiglitazone] + CC(C)(Cc1ccccc1)NCC(O)c1ccc(O)c(NS(C)(=O)=O)c1 [Zinterol hydrochloride] | 46.9% |
| CN(CCOc1ccc(Cc2sc(O)nc2O)cc1)c1ccccn1 [Rosiglitazone] + c1cc(-c2cnn3cc(-c4ccc(OCCN5CCCCC5)cc4)cnc23)ccn1 [Dorsomorphin] | 9.94% |
